Reference: patent US5342845A, “Indole derivatives and drugs” (priority 1990, dated 1994)
Structures can show the parent of a compound that is named as a salt.

Columns and labels:
[1] = test system: Bezold-Jarisch reflex (serotonin-induced decrease in heart rate); experiment: Inhibition of serotonin-induced Bezold-Jarisch reflex; assay type: in vivo, male rats; conditions: Rattus norvegicus, iv, 5 min; i.v. 5 min before 0.1 mg/kg i.v. serotonin; dose inhibiting response by 50%
Source text: 1. Inhibition of Bezold-Jarisch reflex
The effect of the test compound on the serotonin-induced decrease in heart rate (Bezold-Jarisch reflex) was investigated in male rats, 6-8 weeks of age, with reference to the method of Richardson, et al. (Richardson, B. P., Engel, G., Donatsch, P. and Stadle, P. A.: Identification of serotonin-receptor subtypes and their specific blockade by a new class of drugs; Nature 316, 126-131 (1985)). With the animal immobilized in dorsal position under urethane anesthesia, 0.1 mg/kg of serotonin was administered intravenously before and 5 min after intravenous administration of the test compound and changes in heart rate were recorded. […] The ED50 value was calculated by the least square method.

[2] = test system: cisplatin-induced vomiting; experiment: Inhibition of cisplatin-induced vomiting; assay type: in vivo, beagle dogs; conditions: for a/b (Number of animals which vomited/number of animals used): 5 min before cisplatin 2 mg/kg i.v., 6 h observation; for Vomiting frequency: control 12.2 ± 0.8; for Latency to vomiting: control 118.9 ± 5.6
Protocol: 2. Inhibition of cisplatin-induced vomiting
The experiment was performed with reference to the method of Cohen et al. (Cohen, M. L., Bloomquist, W., Gidda, J. S. and Lacefie, W: Comparison of the 5-HT3 receptor antagonist properties of ICS-205-930, GR38032F and Zacopride; J. Pharmacol. Exp. Ther. 248, 197-201 (1989)). In this experiment, beagle dogs of either sex, weighing 8-15 kg, were used. […] The test compounds were administered intravenously 5 minutes before the administration of cisplatin.

mice = experiment: Acute toxicity; assay type: in vivo, male mice; conditions: 48 hours
Source text: Six-week-old male mice were used.

[3] = test system: scopolamine-induced deficits of learning and memory; experiment: Ameliorative effect on scopolamine-induced deficits of learning and memory (step through-type passive avoidance); assay type: in vivo, rats
Protocol: 3. Ameliorative effect on scopolamine-induced deficits of learning and memory
The experiment was performed in groups of 10 rats. In the intraperitoneal administration study, the test compound was dissolved in physiological saline and administered, and 15 minutes later 0.3 mg/kg of scopolamine was administered intraperitoneally. In the oral administration study, the test compound was suspended in 0.5% methylcellulose (MC) solution and administered and 30 minutes later 0.3 mg/kg of scopolamine was administered intraperitoneally. Thirty minutes after scopolamine administration, training sessions for a step through-type passive avoidance learning task was carried out and 24 hours after this training, trial sessions were started.
The latency to step-through in the trial sessions was determined up to a maximum of 300 seconds and the result was regarded as a learning result. For the test of significant differences from the control group, the Kruscall-Wallis test and the Fisher test were used. The control group received a physiological saline or MC solution.

muscarine M1 receptors = target: T1, muscarine M1 receptors (Rattus norvegicus, UniProt P08482); experiment: Muscarine M1 receptor binding ([^3 H]pirenzepine displacement); conditions: 1 nM [^3 H]pirenzepine, rat brain membranes, pH 7.4, 25° C., 60 min
T1 construct: receptor membrane prepared from the rat brain; from tissue; host or cells: rat brain (receptor membrane)
T1 sequence (P08482 1-460): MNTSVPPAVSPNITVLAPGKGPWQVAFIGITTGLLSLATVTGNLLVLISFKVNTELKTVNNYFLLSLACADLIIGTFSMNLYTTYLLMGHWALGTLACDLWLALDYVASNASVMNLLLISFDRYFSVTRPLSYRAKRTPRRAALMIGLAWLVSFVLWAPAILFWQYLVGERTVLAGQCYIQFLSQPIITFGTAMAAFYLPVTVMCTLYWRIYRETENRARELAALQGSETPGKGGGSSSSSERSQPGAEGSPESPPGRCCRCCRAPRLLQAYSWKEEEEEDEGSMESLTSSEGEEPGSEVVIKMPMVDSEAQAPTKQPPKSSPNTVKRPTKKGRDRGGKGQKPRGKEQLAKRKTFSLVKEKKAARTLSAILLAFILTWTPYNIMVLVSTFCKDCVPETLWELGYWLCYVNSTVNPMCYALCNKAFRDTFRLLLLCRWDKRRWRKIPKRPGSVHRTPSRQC
Protocol: 4. Effect on muscarine M1 receptors
The muscarine M1 receptor binding assay was carried out according to the method of Watson and Yamamura [Life Sci. 32; 3001-3011 (1983)]. Thus, receptor membrane prepared from the rat brain were incubated with 1 nM [^3 H]pirenzepine in 10 mM Na/K phosphate buffer (pH 7.4) at 25° C. for 60 minutes. As a displacer, 1μM atropine was used.

[4] = test system: emesis associated with the administration of anticancer drugs; conditions: background art; cited from earlier work
[5] = oral, 0.03 μg/kg, control 110.1 ± 41.6 (Example 11), 111.9 ± 41.4 (Example 12)
[6] = oral, 0.1 μg/kg, control 110.1 ± 41.6 (Example 11), 111.9 ± 41.4 (Example 12)
[7] = oral, 0.3 μg/kg, control 110.1 ± 41.6 (Example 11), 111.9 ± 41.4 (Example 12)
[8] = oral, 1 μg/kg, control 110.1 ± 41.6 (Example 11), 111.9 ± 41.4 (Example 12)

Structure (SMILES): COc1ccc(-c2c(C(=O)N[C@@H]3CN4CCC3CC4)c3ccccc3n2C)cc1 [Example 2, (S)-(-)-N-(1-Azabicyclo[2,2,2]octo-3-yl)-2-(4-methoxyphenyl)-1-methylindole-3-carboxamide hydrochloride]
- ED50 [1]: 0.3 µg/kg
- a/b (Number of animals which vomited/number of animals used) ([2]; 0.03 mg/kg i.v.): 2/2
- Vomiting frequency ([2]; 0.03 mg/kg i.v.): 6.5 times
- Latency to vomiting ([2]; 0.03 mg/kg i.v.): 192.0 min
- Number of dead animals/number of animals used (mice; 30 mg/kg intraperitoneal): 0/4
- Number of dead animals/number of animals used (mice; 50 mg/kg intraperitoneal): 0/4

Structure (SMILES): Cn1c(-c2ccccc2)c(C(=O)N[C@@H]2CN3CCC2CC3)c2ccccc21 [Example 3, (S)-(-)-N(1-Azabicyclo[2,2,2]octo-3-yl)-2-phenyl-1-methylindole-3-carboxamide hydrochloride]
- a/b (Number of animals which vomited/number of animals used) ([2]; 0.03 mg/kg i.v.): 2/2
- Vomiting frequency ([2]; 0.03 mg/kg i.v.): 1.0 times
- Latency to vomiting ([2]; 0.03 mg/kg i.v.): 215.0 min
- Number of dead animals/number of animals used (mice; 30 mg/kg intraperitoneal): 0/4
- Number of dead animals/number of animals used (mice; 50 mg/kg intraperitoneal): 0/4

Structure (SMILES): COc1ccc(-c2c(C(=O)NC3CN4CCC3CC4)c3ccccc3n2C)cc1 (stereo not shown) [Example 4, N-(1-Azabicyclo[2,2,21octo-3-yl)-2-(4-methoxyphenyl)-1-methylindole-3-carboxamide hydrochloride]
- Number of dead animals/number of animals used (mice; 30 mg/kg intraperitoneal): 0/4
- Number of dead animals/number of animals used (mice; 50 mg/kg intraperitoneal): 0/4

Structure (SMILES): Cn1c(-c2ccc(Cl)cc2)c(C(=O)NC2CN3CCC2CC3)c2ccccc21 (stereo not shown) [Example 6, N-(1-Azabicyclo[2,2,2]octo-3-yl)-2-(4-chlorophenyl)-1-methylindole-3-carboxamide hydrochloride]
- Number of dead animals/number of animals used (mice; 50 mg/kg intraperitoneal): 0/4

Structure (SMILES): Cn1c(-c2ccc(Cl)cc2)c(C(=O)N[C@@H]2CN3CCC2CC3)c2ccccc21 [Example 7, (S)-(-)-N-(1-Azabicyclo[2,2,2]octo-3-yl)-2-(4-chlorophenyl)-1-methylindole-3-carboxamide hydrochloride]
- ED50 [1]: 0.28 µg/kg
- a/b (Number of animals which vomited/number of animals used) ([2]; 0.03 mg/kg i.v.): 4/4
- Vomiting frequency ([2]; 0.03 mg/kg i.v.): 2.3 ± 0.6 times
- Latency to vomiting ([2]; 0.03 mg/kg i.v.): 206.8 ± 15.7 min
- Number of dead animals/number of animals used (mice; 50 mg/kg intraperitoneal): 0/4

Structure (SMILES): COc1ccccc1-c1c(C(=O)NC2CN3CCC2CC3)c2ccccc2n1C (stereo not shown) [Example 8, N-(1-Azabicylo[2,2,2]octo-3-yl)-2-(2-methoxyphenyl)-1-methylindole-3-carboxamide hydrochloride]
- ED50 [1]: 0.18 µg/kg

Structure (SMILES): Cn1c(-c2ccccc2Cl)c(C(=O)NC2CN3CCC2CC3)c2ccccc21 (stereo not shown) [Example 10, N-(1-Azabicyclo[2,2,2]octo-3-yl)-2-(2-chlorophenyl)-1-methylindole-3-carboxamide hydrochloride]
- ED50 [1]: 0.25 µg/kg

Structure (SMILES): COc1ccccc1-c1c(C(=O)N[C@@H]2CN3CCC2CC3)c2ccccc2n1C [Example 11, (S)-(-)-N-(1-Azabicyclo[2,2,2]octo-3-yl)-2-(2-methoxyphenyl)-1-methylindole-3carboxamide hydrochloride]
- ED50 [1]: 0.14 µg/kg
- a/b (Number of animals which vomited/number of animals used) ([2]; 0.01 mg/kg i.v.): 4/4
- Vomiting frequency ([2]; 0.01 mg/kg i.v.): 6.8 ± 1.9 times
- Latency to vomiting ([2]; 0.01 mg/kg i.v.): 149.5 ± 5.4 min
- Latency (to step-through) [3, 5]: 214.1 ± 43.8 s
- Latency (to step-through) [3, 6]: 246.5 ± 35.7 s
- Latency (to step-through) [3, 7]: 246.7 ± 35.6 s
- Latency (to step-through) [3, 8]: 162.0 ± 46.1 s
- IC50 (muscarine M1 receptors): 4.6 µM

Structure (SMILES): Cn1c(-c2ccccc2Cl)c(C(=O)N[C@@H]2CN3CCC2CC3)c2ccccc21 [Example 12, (S)-(31)-N-(1-Azabicyclo[2,2,2]octo-3-yl)-2-(2-chlorophenyl)-1-methylindole-3-carboxamide hydrochloride]
- ED50 [1]: 0.2 µg/kg
- a/b (Number of animals which vomited/number of animals used) ([2]; 0.001 mg/kg i.v.): 4/4
- Vomiting frequency ([2]; 0.001 mg/kg i.v.): 7.0 ± 1.7 times
- Latency to vomiting ([2]; 0.001 mg/kg i.v.): 140.5 ± 13.6 min
- a/b (Number of animals which vomited/number of animals used) ([2]; 0.01 mg/kg i.v.): 4/4
- Vomiting frequency ([2]; 0.01 mg/kg i.v.): 3.8 ± 0.5 times
- Latency to vomiting ([2]; 0.01 mg/kg i.v.): 173.8 ± 25.3 min
- Latency (to step-through) ([3]; intraperitoneal, 0.1 μg/kg, control 103.8 ± 43.1): 170.5 ± 43.3 s
- Latency (to step-through) ([3]; intraperitoneal, 0.3 μg/kg, control 103.8 ± 43.1): 183.0 ± 39.6 s
- Latency (to step-through) ([3]; intraperitoneal, 1 μg/kg, control 103.8 ± 43.1): 270.7 ± 29.3 s
- Latency (to step-through) ([3]; intraperitoneal, 3 μg/kg, control 103.8 ± 43.1): 256.3 ± 30.4 s
- Latency (to step-through) ([3]; intraperitoneal, 10 μg/kg, control 103.8 ± 43.1): 163.8 ± 45.6 s
- Latency (to step-through) ([3]; intraperitoneal, 30 μg/kg, control 103.8 ± 43.1): 127.8 ± 46.9 s
- Latency (to step-through) [3, 5]: 108.5 ± 42.0 s
- Latency (to step-through) [3, 6]: 246.3 ± 35.8 s
- Latency (to step-through) [3, 7]: 247.3 ± 35.2 s
- Latency (to step-through) [3, 8]: 105.5 ± 42.6 s
- Latency (to step-through) ([3]; oral, 3 μg/kg, control 111.9 ± 41.4): 139.2 ± 44.0 s
- IC50 (muscarine M1 receptors): 1.2 µM

Structure (SMILES): Cc1nccn1CC1CCc2c(c3ccccc3n2C)C1=O (stereo not shown) [GR-38032F, ondansetron]
- anxiolytic and antipsychotic actions (in words) [4]: exhibit excellent anxiolytic and antipsychotic actions
- effect on emesis associated with anticancer drugs (in words) [4]: markedly inhibit the emesis associated with the administration of anticancer drugs

Structure (SMILES): CN1C2CCC1CC(OC(=O)c1c[nH]c3ccccc13)C2 (stereo not shown) [ICS-205-930, reference compound]
- ED50 [1]: 1.79 µg/kg
- a/b (Number of animals which vomited/number of animals used) ([2]; 0.03 mg/kg i.v.): 4/4
- Vomiting frequency ([2]; 0.03 mg/kg i.v.): 9.5 ± 1.3 times
- Latency to vomiting ([2]; 0.03 mg/kg i.v.): 139.8 ± 13.2 min
